Numbers after ± are expanded uncertainties.

From the NIST ThermoML archive (doi:10.1016/j.jct.2013.05.030) come the findings set out here.

For series [1] the following is noted: 293.15 K; 101.33 kPa; Liquid; Vibrating tube method.
The nature of series [2]: activity coefficient (dimensionless); of the first substance listed, at infinite dilution; xn = mol fraction of the nth substance listed. Particulars: 101 kPa, Liquid, Chromatography, x1 = 0.

By mass density is commonly meant the mass of a sample divided by its volume. Regarding `CCCCCCCCCCCCCC[P+](CCCCCC)(CCCCCC)CCCCCC.O=S(=O)([N-]S(=O)(=O)C(F)(F)F)C(F)(F)F`, the mass density in series [1] is recorded as 1068.87 ± 8.6 kg/m3.

For the molecule `C=CCCCCC` [1-heptene] + CCCCCCCCCCCCCC[P+](CCCCCC)(CCCCCC)CCCCCC.O=S(=O)([N-]S(=O)(=O)C(F)(F)F)C(F)(F)F, the activity coefficient in series [2] (313.15 K) came out at 1.03 ± 0.075; in series [2] (333.15 K), 1.06 ± 0.077; in series [2] (353.15 K) it was 1.1 ± 0.08; in series [2] (373.15 K) it was 1.12 ± 0.082.

As to `C#CCCCCC` [1-heptyne] + CCCCCCCCCCCCCC[P+](CCCCCC)(CCCCCC)CCCCCC.O=S(=O)([N-]S(=O)(=O)C(F)(F)F)C(F)(F)F, the activity coefficient in series [2] (313.15 K) was 0.726 ± 0.055; in series [2] (333.15 K), 0.749 ± 0.056; in series [2] (353.15 K), 0.762 ± 0.057; in series [2] (373.15 K), 0.782 ± 0.058.

Regarding `C#CCCCC` [1-hexyne] + CCCCCCCCCCCCCC[P+](CCCCCC)(CCCCCC)CCCCCC.O=S(=O)([N-]S(=O)(=O)C(F)(F)F)C(F)(F)F, the activity coefficient in series [2] (313.15 K) came out at 0.693 ± 0.053; in series [2] (333.15 K), 0.709 ± 0.054; in series [2] (353.15 K), 0.72 ± 0.054; in series [2] (373.15 K), 0.732 ± 0.055.

As for `C#CCCCCCCC` [1-nonyne] + CCCCCCCCCCCCCC[P+](CCCCCC)(CCCCCC)CCCCCC.O=S(=O)([N-]S(=O)(=O)C(F)(F)F)C(F)(F)F, the activity coefficient amounted to 0.853 ± 0.063 in series [2] (313.15 K), 0.915 ± 0.067 in series [2] (333.15 K), 0.956 ± 0.069 in series [2] (353.15 K) and 0.979 ± 0.071 in series [2] (373.15 K).

In the case of `C#CCCCCCC` [1-octyne] + CCCCCCCCCCCCCC[P+](CCCCCC)(CCCCCC)CCCCCC.O=S(=O)([N-]S(=O)(=O)C(F)(F)F)C(F)(F)F, the activity coefficient in series [2] (313.15 K) turned out to be 0.836 ± 0.062; in series [2] (333.15 K), 0.865 ± 0.063; in series [2] (353.15 K), 0.886 ± 0.065; in series [2] (373.15 K), 0.899 ± 0.066.

For `C=CCCC` [1-pentene] + CCCCCCCCCCCCCC[P+](CCCCCC)(CCCCCC)CCCCCC.O=S(=O)([N-]S(=O)(=O)C(F)(F)F)C(F)(F)F, the activity coefficient in series [2] (313.15 K) came to 0.806 ± 0.06; in series [2] (333.15 K), 0.824 ± 0.061; in series [2] (353.15 K), 0.842 ± 0.062; in series [2] (373.15 K), 0.85 ± 0.063.

With `C#CCCC` [1-pentyne] + CCCCCCCCCCCCCC[P+](CCCCCC)(CCCCCC)CCCCCC.O=S(=O)([N-]S(=O)(=O)C(F)(F)F)C(F)(F)F, the activity coefficient came to 0.613 ± 0.048 in series [2] (313.15 K), 0.636 ± 0.049 in series [2] (333.15 K), 0.663 ± 0.051 in series [2] (353.15 K) and 0.699 ± 0.053 in series [2] (373.15 K).

In the case of `CC(C)=O` [acetone] + CCCCCCCCCCCCCC[P+](CCCCCC)(CCCCCC)CCCCCC.O=S(=O)([N-]S(=O)(=O)C(F)(F)F)C(F)(F)F, the activity coefficient came to 0.297 ± 0.033 in series [2] (313.15 K), 0.327 ± 0.034 in series [2] (333.15 K), 0.332 ± 0.034 in series [2] (353.15 K) and 0.334 ± 0.034 in series [2] (373.15 K).

With `c1ccccc1` [benzene] + CCCCCCCCCCCCCC[P+](CCCCCC)(CCCCCC)CCCCCC.O=S(=O)([N-]S(=O)(=O)C(F)(F)F)C(F)(F)F, the activity coefficient was found to be 0.391 ± 0.036 in series [2] (313.15 K), 0.405 ± 0.037 in series [2] (333.15 K), 0.417 ± 0.038 in series [2] (353.15 K) and 0.437 ± 0.039 in series [2] (373.15 K).

As to `CCC(C)=O` [butanone] + CCCCCCCCCCCCCC[P+](CCCCCC)(CCCCCC)CCCCCC.O=S(=O)([N-]S(=O)(=O)C(F)(F)F)C(F)(F)F, the activity coefficient in series [2] (313.15 K) was 0.321 ± 0.034; in series [2] (333.15 K) it was 0.309 ± 0.033; in series [2] (353.15 K), 0.324 ± 0.034; in series [2] (373.15 K), 0.331 ± 0.034.

Consider `C1CCCCCC1` [cycloheptane] + CCCCCCCCCCCCCC[P+](CCCCCC)(CCCCCC)CCCCCC.O=S(=O)([N-]S(=O)(=O)C(F)(F)F)C(F)(F)F, for which the activity coefficient in series [2] (313.15 K) stood at 0.87 ± 0.064; in series [2] (333.15 K) it was 0.881 ± 0.065; in series [2] (353.15 K), 0.891 ± 0.065; in series [2] (373.15 K), 0.905 ± 0.066.

Consider `C1CCCCC1` [cyclohexane] + CCCCCCCCCCCCCC[P+](CCCCCC)(CCCCCC)CCCCCC.O=S(=O)([N-]S(=O)(=O)C(F)(F)F)C(F)(F)F, for which the activity coefficient in series [2] (313.15 K) is 0.795 ± 0.059; in series [2] (333.15 K), 0.797 ± 0.059; in series [2] (353.15 K), 0.798 ± 0.059; in series [2] (373.15 K) it was 0.8 ± 0.059.

Regarding `C1CCCCCCC1` [cyclooctane] + CCCCCCCCCCCCCC[P+](CCCCCC)(CCCCCC)CCCCCC.O=S(=O)([N-]S(=O)(=O)C(F)(F)F)C(F)(F)F, the activity coefficient in series [2] (313.15 K) was found to be 0.963 ± 0.07; in series [2] (333.15 K), 0.998 ± 0.072; in series [2] (353.15 K) it was 1.07 ± 0.078; in series [2] (373.15 K), 1.12 ± 0.082.

Consider `C1CCCC1` [cyclopentane] + CCCCCCCCCCCCCC[P+](CCCCCC)(CCCCCC)CCCCCC.O=S(=O)([N-]S(=O)(=O)C(F)(F)F)C(F)(F)F, for which the activity coefficient in series [2] (313.15 K) worked out at 0.687 ± 0.052; in series [2] (333.15 K) it was 0.698 ± 0.053; in series [2] (353.15 K), 0.713 ± 0.054; in series [2] (373.15 K), 0.721 ± 0.055.

`C=CCCCC` [hex-1-ene] + CCCCCCCCCCCCCC[P+](CCCCCC)(CCCCCC)CCCCCC.O=S(=O)([N-]S(=O)(=O)C(F)(F)F)C(F)(F)F: the activity coefficient turned out to be 0.907 ± 0.066 in series [2] (313.15 K), 0.921 ± 0.067 in series [2] (333.15 K), 0.93 ± 0.068 in series [2] (353.15 K) and 0.942 ± 0.068 in series [2] (373.15 K).

For `CCCCCC` [hexane] + CCCCCCCCCCCCCC[P+](CCCCCC)(CCCCCC)CCCCCC.O=S(=O)([N-]S(=O)(=O)C(F)(F)F)C(F)(F)F, the activity coefficient stood at 1.1 ± 0.08 in series [2] (313.15 K), 1.11 ± 0.081 in series [2] (333.15 K), 1.12 ± 0.082 in series [2] (353.15 K) and 1.13 ± 0.083 in series [2] (373.15 K).

As to `CO` [methanol] + CCCCCCCCCCCCCC[P+](CCCCCC)(CCCCCC)CCCCCC.O=S(=O)([N-]S(=O)(=O)C(F)(F)F)C(F)(F)F, the activity coefficient turned out to be 1.08 ± 0.079 in series [2] (313.15 K), 1.03 ± 0.074 in series [2] (333.15 K), 0.922 ± 0.067 in series [2] (353.15 K) and 0.863 ± 0.063 in series [2] (373.15 K).

Consider `CCCCCCCCC` [nonane] + CCCCCCCCCCCCCC[P+](CCCCCC)(CCCCCC)CCCCCC.O=S(=O)([N-]S(=O)(=O)C(F)(F)F)C(F)(F)F, for which the activity coefficient in series [2] (313.15 K) was 1.6 ± 0.12; in series [2] (333.15 K), 1.67 ± 0.13; in series [2] (353.15 K) it was 1.77 ± 0.14; in series [2] (373.15 K), 1.87 ± 0.14.

`CCCCCCCC` [octane] + CCCCCCCCCCCCCC[P+](CCCCCC)(CCCCCC)CCCCCC.O=S(=O)([N-]S(=O)(=O)C(F)(F)F)C(F)(F)F: the activity coefficient amounted to 1.4 ± 0.1 in series [2] (313.15 K), 1.44 ± 0.11 in series [2] (333.15 K), 1.46 ± 0.11 in series [2] (353.15 K) and 1.49 ± 0.11 in series [2] (373.15 K).

`CCCCC` [pentane] + CCCCCCCCCCCCCC[P+](CCCCCC)(CCCCCC)CCCCCC.O=S(=O)([N-]S(=O)(=O)C(F)(F)F)C(F)(F)F: the activity coefficient in series [2] (313.15 K) is 0.96 ± 0.07; in series [2] (333.15 K) it was 0.978 ± 0.071; in series [2] (353.15 K) it was 0.99 ± 0.072; in series [2] (373.15 K) it was 1 ± 0.072.

`CCCO` [propan-1-ol] + CCCCCCCCCCCCCC[P+](CCCCCC)(CCCCCC)CCCCCC.O=S(=O)([N-]S(=O)(=O)C(F)(F)F)C(F)(F)F: the activity coefficient in series [2] (313.15 K) is 1.28 ± 0.095; in series [2] (333.15 K), 1.15 ± 0.084; in series [2] (353.15 K), 1.07 ± 0.078; in series [2] (373.15 K), 0.953 ± 0.069.

For `Cc1ccccc1` [toluene] + CCCCCCCCCCCCCC[P+](CCCCCC)(CCCCCC)CCCCCC.O=S(=O)([N-]S(=O)(=O)C(F)(F)F)C(F)(F)F, the activity coefficient in series [2] (313.15 K) is 0.452 ± 0.039; in series [2] (333.15 K) it was 0.472 ± 0.04; in series [2] (353.15 K), 0.486 ± 0.041; in series [2] (373.15 K), 0.51 ± 0.042.
